Values of other authors, collected in patent US20200254068A1, “METHODS FOR TREATING TRAUMATIC BRAIN INJURY” (LOMA LINDA UNIVERSITY, priority 2017, published 2020).

Conditions: given acutely, goal of reducing cerebral edema

## C[C@@H]1C[C@H]2[C@@H]3CCC4=CC(=O)C=C[C@]4(C)[C@@]3(F)[C@@H](O)C[C@]2(C)[C@@]1(O)C(=O)CO [dexamethasone]
  mortality rate in clinical TBI trials: increase the mortality rate

## CC(=O)[C@H]1CC[C@H]2[C@@H]3CCC4=CC(=O)CC[C@]4(C)[C@H]3CC[C@]12C [progesterone]
  outcome in clinical TBI trials: unsuccessful
